Publication PMC10776880 (EXCLI Journal, 2023)
pIC50: −log10 of the molar value.

Target: T1, ABCG2 (breast cancer resistance protein, BCRP) (Homo sapiens, UniProt Q9UNQ0)
T1 sequence (Q9UNQ0 1-655): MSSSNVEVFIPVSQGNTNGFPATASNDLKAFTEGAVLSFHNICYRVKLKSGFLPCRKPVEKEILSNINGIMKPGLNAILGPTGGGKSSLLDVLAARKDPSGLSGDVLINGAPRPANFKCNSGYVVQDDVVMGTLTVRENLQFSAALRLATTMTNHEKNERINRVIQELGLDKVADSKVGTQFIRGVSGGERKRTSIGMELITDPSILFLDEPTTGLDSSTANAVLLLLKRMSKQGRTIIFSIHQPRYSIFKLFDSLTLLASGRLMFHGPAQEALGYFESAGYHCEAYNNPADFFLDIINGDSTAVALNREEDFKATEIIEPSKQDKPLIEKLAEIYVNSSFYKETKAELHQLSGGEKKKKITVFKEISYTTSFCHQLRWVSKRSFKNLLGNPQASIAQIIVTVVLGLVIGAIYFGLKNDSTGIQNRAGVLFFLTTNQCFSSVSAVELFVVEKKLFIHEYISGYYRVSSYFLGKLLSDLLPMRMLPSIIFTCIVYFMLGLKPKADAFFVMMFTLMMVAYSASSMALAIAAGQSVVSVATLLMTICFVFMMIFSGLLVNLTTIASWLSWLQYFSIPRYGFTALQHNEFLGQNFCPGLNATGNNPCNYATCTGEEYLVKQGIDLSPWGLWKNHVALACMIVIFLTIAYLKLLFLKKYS
Assay: Hoechst […] efflux inhibition by flow cytometry in HEK293-ABCG2 cells; 5D3 conformational antibody shift; kinetics with mitoxantrone
Format: cell-based

`Cc1cccc(C)c1OCC(=O)N[C@@H](Cc1ccccc1)[C@@H](O)C[C@H](Cc1ccccc1)NC(=O)[C@H](C(C)C)N1CCCNC1=O` [LPV, lopinavir] showed a pIC50 of 4.63.
